Measurements published in patent US20130184257A1, “PIPERIDINYL-SUBSTITUTED LACTAMS AS GPR119 MODULATORS” (priority 2010, published 2013).

Test system: modified version of the GPR119 receptor (94% identity to human receptor) stably expressed in HEK-293 cells
Experiment: cAMP Production Assay (LANCE cAMP kit, TR-FRET)
Type: cell-based
Conditions: for cAMP production in HEK-293 cells: HEK-293 cells expressing modified GPR119, test compounds 0.2 nM to 10 μM, one-hour incubation at ambient temperature; for Fold over baseline: increase in cAMP relative to basal levels, 1.5-fold or greater = agonist activity
Experimental: The assay utilized HEK-293 cells that stably express a modified version of the GPR119 receptor (94% identity to human receptor), under the control of a CMV promoter containing a tet-on element for tetracycline-inducible expression. GPR119 agonist-induced cyclic AMP (cAMP) production was measured in this cell line using the LANCE cAMP kit (Perkin Elmer, Waltham, Mass.). To generate a working stock of cells for the assay, cells were treated overnight with 1 μg/mL doxycycline at 37° C. in the presence of 5% CO2 to induce receptor expression. Cells were then harvested by enzymatic dissociation with 0.05% trypsin, resuspended in freezing medium (DMEM growth medium with 10% each of fetal bovine serum and DMSO), aliquoted and frozen at −80° C. On the day of the assay, frozen cells were thawed, washed 1× in PBS and resuspended in Hank's buffered salt solution (HBSS) containing 5 mM HEPES, 0.1% BSA and Alexa Fluor 647-conjugated anti-cAMP antibody (diluted 1:100). The cell suspension was then transferred to a Proxiplate Plus white 384-well assay plate (Perkin-Elmer) at 2000 cells/well. Test compounds at final concentrations ranging from 0.2 nM to 10 μM were added to the assay plate, followed by a one-hour incubation at ambient temperature (volume=10 μL/well). DMSO concentration was held constant at 0.5%. After incubation with test compounds, 10 μL of a detergent buffer containing a biotinylated cAMP/Europium-conjugated streptavidin complex (Europium-labeled cAMP tracer) were added to each well on the assay plate, followed by a 2-hour incubation at ambient temperature. During this incubation cAMP released from lysed cells competes with the Europium-labeled cAMP tracer for binding to the Alexa Fluor 647-conjugated antibody. […] Cellular cAMP levels were then determined by interpolation of raw signal data using a cAMP standard curve. Compounds were determined to have agonist activity if they stimulated a 1.5-fold or greater increase in cAMP relative to basal levels.

`CC(F)(F)c1nc(N2CCC(N3CC[C@H](Nc4ccc(S(C)(=O)=O)cc4F)C3=O)CC2)no1` [Example 49, (S)-1-(1-(5-(1,1-difluoroethyl)-1,2,4-oxadiazol-3-yl)piperidin-4-yl)-3-(2-fluoro-4-(methylsulfonyl)phenylamino)pyrrolidin-2-one] was tested, and the “cAMP production in HEK-293 cells” value was 20.8 nmol and the Fold over baseline was 2.7.

In the case of `CC(F)(F)c1nc(N2CCC(N3CCC[C@H](Nc4c(F)cc(S(C)(=O)=O)cc4F)C3=O)CC2)no1` [Example 50, (S)-3-(2,6-difluoro-4-(methylsulfonyl)phenylamino)-1′-(5-(1,1-difluoroethyl)-1,2,4-oxadiazol-3-yl)-1,4′-bipiperidin-2-one], the “cAMP production in HEK-293 cells” value is reported as 3.9 nmol and the Fold over baseline is reported as 1.7.

`CS(=O)(=O)c1ccc(N[C@H]2CCN(C3CCN(c4noc(N5CCCC5)n4)CC3)C2=O)c(F)c1` [Example 51] was tested, and the “cAMP production in HEK-293 cells” value was 16.3 nmol and the Fold over baseline was 2.9.

With `CC(F)(F)c1nc(N2CCC(N3CC[C@H](Oc4cc(F)c(S(C)(=O)=O)cc4F)C3=O)CC2)no1` [Example 52, (S)-3-(2,5-difluoro-4-(methylsulfonyl)phenoxy)-1-(1-(5-(1,1-difluoroethyl)-1,2,4-oxadiazol-3-yl)piperidin-4-yl)pyrrolidin-2-one] the “cAMP production in HEK-293 cells” value was 15.5 nmol and the Fold over baseline was 5.8.

With `CS(=O)(=O)c1cc(F)c(N[C@H]2CCCCN(C3CCN(c4noc(C(F)(F)F)n4)CC3)C2=O)cc1F` [Example 53, (S)-3-(2,5-difluoro-4-(methylsulfonyl)phenylamino)-1-(1-(5-(trifluoromethyl)-1,2,4-oxadiazol-3-yl)piperidin-4-yl)azepan-2-one] the “cAMP production in HEK-293 cells” value was 11.8 nmol and the Fold over baseline was 4.7.

`CS(=O)(=O)c1cc(F)c(O[C@H]2CCCN(C3CCN(c4noc(C(F)(F)F)n4)CC3)C2=O)cc1F` [Example 54, (S)-3-(2,5-difluoro-4-(methylsulfonyl)phenoxy)-1′-(5-(trifluoromethyl)-1,2,4-oxadiazol-3-yl)-[1,4′-bipiperidin]-2-one] was tested, and the “cAMP production in HEK-293 cells” value was 19.9 nmol and the Fold over baseline was 4.9.

`CC(F)(F)c1nc(N2CCC(N3CCC[C@H](Oc4cc(F)c(S(C)(=O)=O)cc4F)C3=O)CC2)no1` [Example 55, (S)-3-(2,5-difluoro-4-(methylsulfonyl)phenoxy)-1′-(5-(1,1-difluoroethyl)-1,2,4-oxadiazol-3-yl)-[1,4′-bipiperidin]-2-one] was tested, and the “cAMP production in HEK-293 cells” value was 17.3 nmol and the Fold over baseline was 3.7.

With `CS(=O)(=O)c1ccc(O[C@H]2CCN(C3CCN(c4noc(C(F)(F)F)n4)CC3)C2=O)cn1` [Example 56, (S)-3-((6-(methylsulfonyl)pyridin-3-yl)oxy)-1-(1-(5-(trifluoromethyl)-1,2,4-oxadiazol-3-yl)piperidin-4-yl)pyrrolidin-2-one] the “cAMP production in HEK-293 cells” value was 21.1 nmol and the Fold over baseline was 3.3.

In the case of `CS(=O)(=O)c1ccc(N[C@H]2CCN(C3CCN(c4noc(C(F)(F)F)n4)CC3)C2=O)cn1` [Example 57, (S)-3-((6-(methylsulfonyl)pyridin-3-yl)amino)-1-(1-(5-(trifluoromethyl)-1,2,4-oxadiazol-3-yl)piperidin-4-yl)pyrrolidin-2-one], the “cAMP production in HEK-293 cells” value is reported as 27.2 nmol and the Fold over baseline is reported as 3.7.

`CS(=O)(=O)c1ccc(N[C@H]2CCN(C3CCN(c4noc(C(F)F)n4)CC3)C2=O)cn1` [Example 58] was tested, and the “cAMP production in HEK-293 cells” value was 15.8 nmol and the Fold over baseline was 2.6.

With `CS(=O)(=O)c1cc(F)c(N[C@H]2CCN(C3CCN(c4nc(C(F)(F)F)no4)CC3)C2=O)cc1F` [Example 59, (S)-3-((2,5-difluoro-4-(methylsulfonyl)phenyl)amino)-1-(1-(3-(trifluoromethyl)-1,2,4-oxadiazol-5-yl)piperidin-4-yl)pyrrolidin-2-one] the “cAMP production in HEK-293 cells” value was 25.7 nmol and the Fold over baseline was 3.9.
